For one data set, the system named is DENV2. Kind of data set: Antiviral activity in DENV2-infected Huh7 cells, infectious virus in supernatant by plaque assay. The data set is classed as cell-based, dengue virus. To be noted: for pIC50 / IC90: Dengue virus; for IC90: from dose-response curve fit, 24 hpi. The procedure:
FIG 2 Pyrimethamine inhibits dengue virus and NS2B/3 proteinase cleavage like ARDP0006. (A) Chemical structures and (B) ROCS overlay of ARDP0006 and pyrimethamine. […] Infectious virus in cell supernatant was quantified by plaque assay at 24 hpi (left y axis, black or red). Cell viability was measured at the same pyrimethamine doses 24 h posttreatment by WST-1 assay (right y axis, gray). Viral titer and cell viability were normalized to DMSO-treated samples. (D) Splenic titers of DENV2-infected AGB6 mice at 4 days postinfection. Mice were infected with 1 × 10^6 PFU DENV2 and treated twice daily with 20 mg/kg pyrimethamine (n = 9) or a vehicle control (n = 10). Data were analyzed by two-tailed unpaired t test. (E) Cleavage kinetics of NS2B/3/4A in the presence of 100 μM pyrimethamine. NS2B/3/4A protein was expressed in vitro and radiolabeled with [^35S]methionine, followed by treatment with 100 μM pyrimethamine or DMSO. Reaction samples were obtained over a 45-min time course, separated by SDS-PAGE, and the fraction of uncleaved proteinase precursor remaining was determined as described previously ([23]). Data from three replicates were fit using single-phase exponential decay functions, and P value was determined by comparing the rate constant, K, of the models using the extra sum-of-squares F test.
Dengue plaque assays were carried out on BHK-21 cells in 24-well plates. Cells were infected with 10-fold serial dilutions of virus, which were allowed to adsorb for at least 1 h at 37°C, and overlaid with standard cell culture medium plus 0.37% (w/vol) sodium bicarbonate and 0.8% (w/vol) Aquacide II (Millipore Calbiochem). After 7 days of incubation at 37°C, 5% CO2, cells were fixed with 5% (final) formaldehyde and stained with crystal violet for plaque enumeration.
Between 4 × 10^4 and 1 × 10^5 Huh7 cells per well were seeded into 24-well plates 1 day prior to infection. Compounds were diluted to 100× final concentration in DMSO and then further diluted 1:100 into appropriate cell culture. Unless otherwise indicated, tested compounds were present for 1 h pretreatment and readministered for posttreatment following infection. […] Media and drugs were removed from cells for infection at a multiplicity of infection (MOI) of 0.1 or 0.5 in 200 μl cold medium per well. After 1 h at 37°C, virus inoculum was removed by aspiration and replaced with medium plus compound or control. After 24-h total infection, infectious virus was quantified by plaque assay. Antiviral IC50 dose-response curves were fitted in GraphPad Prism 8 using the “[inhibitor] versus response, variable slope” function with a constraint “bottom > 0.” IC90 values are defined as the dose at which “y = (span × 0.1) + bottom.”

In data set [1] the test system is dengue virus. On the set-up: method as in PMID 25823617. To be noted: read-out: IC50, inhibition of viral growth in cell culture; cited from earlier work.
The next data set addresses NS2B/3 proteinase. The arrangement: method as in PMID 30228122. To be noted: read-out: IC50, inhibition of NS2B/3 proteinase cleavage activity in solution; cited from earlier work.
Data set [2] relates to dengue virus. Description: Virucidal activity assay, 60-min incubation of drug with virus, plaque assay on BHK-21 cells. The data set is classed as cell-based. The procedure:
(§1) (A) Chemical structures and (B) ROCS overlay of ST-148 and niclosamide. […] Compound addition, viral growth, and cytotoxicity assays were performed as described in the legend to Fig. 2C. (D) Virucidal activity of compounds at the concentrations indicated was measured after 60-min incubation of drugs with virus-containing solutions at 37°C. Viral titer was quantified by plaque assay on BHK-21 cells. n = 3. Statistical significance was evaluated by one-way ANOVA with Sidak’s multiple-comparison test and indicated as follows: *, P < 0.05; **, P < 0.01; ****, P < 0.0001; ns, not significant. […] On the left, cells were pretreated for 2 h prior to infection, compounds were removed during a 1-h infection at an MOI of 0.5 PFU/cell and then readministered after removal of viral inoculum. On the right, cells were similarly infected and compounds were first introduced 4 h after starting the infection. […] (F) To test the effect of ST-148 and niclosamide on viral RNA replication, Huh7 cells were infected for 1 h at an MOI of 0.5 PFU/cell. […] Intracellular RNA was collected at the time points indicated and quantified by qRT-PCR. […] N = 4, two-way ANOVA with Dunnett’s multiple-comparison test. […] After 4 h of infection, 10 μM ST-148 or 1 μM niclosamide was added; extracellular virus was collected at 24 hpi and quantified by plaque assay.
Compounds were diluted to 100× in DMSO, then further diluted 1:100 into phosphate-buffered saline (PBS) containing dengue virus to a final volume of 200 μl and mixed. Aliquots were taken for plaque assays immediately after addition of compounds (time [T] = 0 min) or after incubation at 37°C for 60 min (T = 60 min).

The subject of the next data set is dengue viral RNA. Description: Intracellular viral RNA quantification by qRT-PCR in infected Huh7 cells. The data set is classed as cell-based, dengue virus. As to conditions: added 4 h postinfection at IC90 dose (5.6 μM ST-148, 0.66 μM niclosamide). The procedure:
as §1
(In qPCR the cycle at which signal appears reflects the starting amount.)

Data set [3] has as its system dengue virus. Kind of data set: Initial screening of hit compounds for anti-dengue activity in tissue culture cells (Table S1). The data set is classed as cell-based. To be noted: viral titer relative to vehicle, tissue culture cell lines (BHK-21 48 hpi, Fig. S1; Huh7, Fig. 2C, 3C, 4C). The procedure: For each query molecule, the top 500 compound hits obtained from the ROCS algorithm, as ranked by the Tanimoto combo score (see Data Set S1 in the supplemental material), were manually inspected for similar chemical and structural features. They were further prioritized by factors such as a lack of known side effects, commercial availability, and the intellectual property considerations that would be needed for worldwide, inexpensive use. Fourteen candidates were tested for their effects on dengue virus growth and toxicity in BHK-21 and Huh7 cells (see Table S1 and Fig. S1 in the supplemental material).
Supplementary file : TABLE S1 Summary of hits for lead compounds ARDP0006 and ST-148 screened for anti-dengue activity in tissue culture cells. Hit compounds were tested for anti-dengue activity and cell toxicity in tissue culture cell lines. Antiviral activity is summarized as follows: −, not antiviral, with titer greater than 50% of vehicle; +, weakly antiviral, with titer between 20 and 50% of vehicle; ++, moderately antiviral, with titer between 5 and 20% of vehicle; +++, highly antiviral, with titer less than 5% of vehicle. Toxicity at these doses is represented as follows: −, nontoxic, with cell viability greater than 80% of vehicle; +, mild toxicity, with cell viability between 60 and 80% of vehicle; +++, high toxicity, with cell viability less than 60% of vehicle. Data summarized here are depicted graphically in Fig. S1 and Fig. 2C, 3C, and [4]C. The Tanimoto combo score of each hit during initial ROCS screening is indicated; higher Tanimoto combo scores are indicative of increased chemical similarity. Download Table S1, PDF file, 0.04 MB.
Supplementary file : FIG S1 Initial screening of eliminated hit compounds for anti-dengue activity in tissue culture cells. BHK-21 cells were pretreated with the compounds at the indicated concentrations for 30 min, infected with dengue virus at an MOI of 0.1 PFU/cell for 1 h, and then posttreated with compound. At 48 hpi, cellular supernatant was collected and titered by plaque assay (purple). Cell viability in uninfected cells in the presence of compounds for 48 h was measured by WST assay (gray). Both viral titer and cell viability are normalized to their relative DMSO vehicle control, N = 2. Download FIG S1, PDF file, 0.06 MB.

In the next data set the test system is Zika virus. On the set-up: method as in PMID 27571349. As to conditions: read-out: IC50, previously reported value for Zika virus; cited from earlier work.
The conditions of data set [4]: single dose, ref PubChem database, cited from earlier work.
The subject of data set [5] is dengue virus. Kind of data set: Extracellular and intracellular virus quantification in Huh7 cells. The data set is classed as cell-based. As to conditions: IC90 dose (spautin-1 2.4 μM, vandetanib 3.6 μM), Huh7, 24 hpi. The procedure: FIG 5 Vandetanib and spautin-1 inhibit dengue maturation and egress in a VPS34-independent manner. […] Cells were pretreated for 1 h, infected for 1 h at an MOI of 0.5 PFU/cell, and posttreated for an additional 23 h. N = 4, one-way ANOVA with Dunnett’s multiple-comparison test. ns, not significant (P > 0.05); **, P < 0.01; ****, P < 0.0001. (C) Huh7 cells transfected with a luciferase-expressing RNA replicon were treated with 3 μM vandetanib (orange) or 1% DMSO vehicle control (black) for 1 h prior to transfection and up to 52 h posttransfection. Luciferase intensity was quantified as a measure of viral protein abundance. Luciferase intensity was shown as relative light units (RLU). The use of an RNA replicon that is directly transfected into cells reflects only translation and RNA replication steps of viral infection, not viral packaging or cell exit. N = 4, two-way ANOVA with Sikak’s multiple-comparison test. […] (D) VPS34 was not required for spautin-1 or vandetanib anti-dengue activity. Wild-type and VPS34 knockout Huh7 cells were treated with 5 μM spautin-1, 5 μM vandetanib, or DMSO. Cells were pretreated, infected at an MOI of 0.5, and posttreated as described above for panels A and B. At 24 hpi, cellular supernatant was collected and titered by plaque assay. N ≥ 3. One-way ANOVA with Dunnett’s multiple-comparison test; *, P < 0.05; **, P < 0.01; ***, P < 0.001; ****, P < 0.0001.
After 1 h, virus inoculum was aspirated and replaced with medium containing compounds or 1% DMSO. After 24-h total infection, extracellular virus was collected in cellular supernatant and quantified by plaque assay. To collect intracellular virus, cells were washed with PBS, incubated for 3 min at 4°C with high-salt buffer (1 M NaCl, 50 mM sodium bicarbonate [pH 9.5]) to detach cell-associated extracellular virus ([63]), washed twice with PBS, detached with 0.25% trypsin-EDTA, and isolated by centrifugation (500 × g, 5 min, 4°C). Infected cell pellets were resuspended in 750 μl cell culture medium, lysed by repeated freeze/thaw in liquid nitrogen followed by 37°C water bath. Debris was removed by centrifugation (3,200 × g, 5 min, 4°C), and infectious intracellular virus was quantified by BHK-21 plaque assay.

Data set [6] concerns dengue virus. Description: Antiviral activity in VPS34 knockout Huh7 cells. The data set is classed as cell-based. As to conditions: 5 μM compound, MOI 0.5, 24 hpi. The procedure:
FIG 5 Vandetanib and spautin-1 inhibit dengue maturation and egress in a VPS34-independent manner. […] Cells were pretreated for 1 h, infected for 1 h at an MOI of 0.5 PFU/cell, and posttreated for an additional 23 h. N = 4, one-way ANOVA with Dunnett’s multiple-comparison test. ns, not significant (P > 0.05); **, P < 0.01; ****, P < 0.0001. (C) Huh7 cells transfected with a luciferase-expressing RNA replicon were treated with 3 μM vandetanib (orange) or 1% DMSO vehicle control (black) for 1 h prior to transfection and up to 52 h posttransfection. Luciferase intensity was quantified as a measure of viral protein abundance. Luciferase intensity was shown as relative light units (RLU). The use of an RNA replicon that is directly transfected into cells reflects only translation and RNA replication steps of viral infection, not viral packaging or cell exit. N = 4, two-way ANOVA with Sikak’s multiple-comparison test. […] (D) VPS34 was not required for spautin-1 or vandetanib anti-dengue activity. Wild-type and VPS34 knockout Huh7 cells were treated with 5 μM spautin-1, 5 μM vandetanib, or DMSO. Cells were pretreated, infected at an MOI of 0.5, and posttreated as described above for panels A and B. At 24 hpi, cellular supernatant was collected and titered by plaque assay. N ≥ 3. One-way ANOVA with Dunnett’s multiple-comparison test; *, P < 0.05; **, P < 0.01; ***, P < 0.001; ****, P < 0.0001. […]

Setting [7] is: Huh-7, DENV2-infected Huh7 cells.
The mark [8] stands for this setting: Huh-7, DENV2-infected Huh7 cells, single infectious cycle, plaque assay at 24 hpi, read-out: IC50 of viral inhibition (infectious extracellular virus).

The text below walks through data of paper PMC7667029, “A Targeted Computational Screen of the SWEETLEAD Database Reveals FDA-Approved Compounds with Anti-Dengue Viral Activity” (mBio, 2020).

pIC50: −log10 of the molar value. Entries after “also recorded” stand apart in the source; their conditions may differ. Like-named read-outs stand apart in the source and are kept apart here.

For the molecule `O=C1c2c(O)ccc([N+](=O)[O-])c2C(=O)c2c([N+](=O)[O-])ccc(O)c21` [ARDP0006], the pIC50 in the data set with DENV2 (DENV2, Huh-7, read-out: IC50 of viral inhibition (infectious extracellular virus)) was 6.23; in the data set with dengue virus [1], 5.57; at NS2B/3 proteinase, 3.21.

One may read the IC90 as the point of the concentration-response curve where the effect stands at 90%. A high value points to a need for much substance. What is called LD50 is the dose at which mortality reaches 50%. As to `O=C(Nc1ccc([N+](=O)[O-])cc1Cl)c1cc(Cl)ccc1O` [Niclosamide, niclosamide], the “Virion production at increased dose after entry” value in the data set on DENV2 (10 μM ST-148 or 1 μM niclosamide added after 4 h of infection, extracellular virus at 24 hpi) is on record as “effective during later, postentry stages; also recorded: inhibited virion production”. For the same molecule, the 90% effect level in the data set with DENV2 (setting [7]) (IC90) was put at 0.66 µM. Moreover, the pIC50 with DENV2 (setting [8]) and in the data set on Zika virus was 6.55 each time. Further, in the data set with DENV2 (IC90 dose first added 4 h after infection, Huh7, 24 hpi), the “Viral titer on delayed addition of compound” value was “eliminated the observed reduction of viral titer”. In the data set with dengue virus [2] (1 μM niclosamide added to 0.1 μM ST-148, 1 h at 37°C), the “Virucidal effect of the combination with ST-148” value was “significantly increased the virucidal effect of ST-148; also recorded: augment the virucidal activity of ST-148”. Further, in the data set with dengue virus [2] (niclosamide alone at a much higher concentration, 1 h at 37°C), the “Virucidal activity (viral infectivity after coincubation)” value is listed as “significantly, albeit slightly, virucidal”. Further, the “Viral RNA abundance” value in the data set on dengue viral RNA was “no difference in viral RNA abundance”. Also, the Antiviral result in the data set on dengue virus [3] was “+++ (highly antiviral, with titer less than 5% of vehicle)”. The LD50 is 7.5 mg/kg in [4] (IP) and 1000 mg/kg in [4] (Oral).

`Fc1ccc(CNc2ncnc3ccc(F)cc23)cc1` [spautin-1] displayed an IC90 in the data set with DENV2 (setting [7]) of 2.4 µM. The pIC50 in the data set on DENV2 (setting [8]) is 5.96. Also, in the data set on dengue virus [5], the Extracellular viral titer result was “significantly reduced; also recorded: reduced extracellular virus” and the Infectious intracellular virus entry is listed as “unchanged; also recorded: abundant intracellular virus”. The “Antiviral activity in VPS34 knockout cells” value with dengue virus [6] is “retained significant antiviral activity; also recorded: retained their ability to limit dengue virus egress”.
